In patent US9573954B2, “Pyrazolopyrimidine compounds” (University Health Network, priority 2012, dated 2017):
Where two headings read alike, the source gives them in different places.

How the values were obtained:
human TTK = molecular target: T1, human TTK (Homo sapiens, UniProt P33981); experiment: TTK inhibition assay (indirect ELISA); format: biochemical; settings: 100 μM ATP; read-out: TTK IC50 Range
T1 construct: Active TTK was purchased from Invitrogen as an amino terminal GST fusion of full length human TTK; purchased Invitrogen
T1 sequence (P33981 1-857): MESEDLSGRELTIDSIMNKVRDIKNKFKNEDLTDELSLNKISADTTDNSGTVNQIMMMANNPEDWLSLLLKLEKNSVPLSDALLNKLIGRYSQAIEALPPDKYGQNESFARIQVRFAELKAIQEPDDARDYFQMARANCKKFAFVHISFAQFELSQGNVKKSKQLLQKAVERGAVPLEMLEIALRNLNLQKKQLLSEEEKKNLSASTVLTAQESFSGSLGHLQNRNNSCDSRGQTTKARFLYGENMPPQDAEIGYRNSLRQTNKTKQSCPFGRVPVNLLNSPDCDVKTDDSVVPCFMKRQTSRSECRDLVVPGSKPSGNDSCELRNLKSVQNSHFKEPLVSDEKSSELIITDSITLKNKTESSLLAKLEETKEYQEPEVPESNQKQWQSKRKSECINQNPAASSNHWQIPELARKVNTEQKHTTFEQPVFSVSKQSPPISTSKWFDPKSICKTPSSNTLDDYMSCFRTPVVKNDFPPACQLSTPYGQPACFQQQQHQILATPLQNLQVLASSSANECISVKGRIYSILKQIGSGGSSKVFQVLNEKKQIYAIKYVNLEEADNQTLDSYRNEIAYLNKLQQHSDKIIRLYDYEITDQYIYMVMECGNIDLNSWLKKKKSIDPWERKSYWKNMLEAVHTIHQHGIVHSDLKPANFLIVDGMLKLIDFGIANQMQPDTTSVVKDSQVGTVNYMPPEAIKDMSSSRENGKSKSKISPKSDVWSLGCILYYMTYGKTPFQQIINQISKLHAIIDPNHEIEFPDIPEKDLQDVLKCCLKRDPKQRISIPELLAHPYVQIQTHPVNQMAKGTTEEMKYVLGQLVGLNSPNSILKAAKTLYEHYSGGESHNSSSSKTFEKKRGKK
Procedure: Active TTK was purchased from Invitrogen as an amino terminal GST fusion of full length human TTK.
TTK activity was measured using an indirect ELISA detection system.
Compounds were pre-incubated in the presence of enzyme for 5 minutes prior to addition of ATP and the activity remaining quantified using the above described activity assay. The % Inhibition of a compound was determined using the following formula; % Inhibition=100×(1−(experimental value−background value)/(high activity control−background value)). The IC50 value was determined using a non-linear 4 point logistic curve fit (XLfit4, IDBS) with the formula; (A+(B/(1+((x/C)^D)))), where A=background value, B=range, C=inflection point, D=curve fit parameter.

[1] = test system: colon cancer cells (HCT116); experiment: Cancer cell line growth inhibition, Sulforhodamine B assay, HCT116; format: cell-based; settings: read-out: Cancer Cell Line GI50 Range HCT116
Procedure: (§1) Breast cancer cells (MDA-MB-231 and MDA-MB-468), colon cancer cells (HCT116) and ovarian cancer cells (PA-1 and OVCAR-3) were seeded (1000 to 4000 in 80 μl per well depending on the cell growth rate) into 96 well plates 24 hours before compound overlay. Compounds were prepared as 10 mM stock solutions in 100% DMSO which were diluted with DMEM (Dulbecco's Modified Eagle's Medium) cell growth Medium (Invitrogen, Burlington, ON, Canada) containing 10% FBS (Fetal Bovine Serum) to concentrations ranging from 50 nM to 250 μM. Aliquots (20 μl) from each concentration were overlaid to 80 μl of the pre-seeded cells in the 96 well plates to make final concentrations of 10 nM to 50 μM. The cells were cultured for 5 days before the Sulforhodamine B assay (SRB) was performed to determine the compound's cell growth inhibition activity.
(§2) Sulforhodamine B (purchased from Sigma, Oakville, ON, Canada) is a water-soluble dye that binds to the basic amino acids of the cellular proteins. Thus, colorimetric measurement of the bound dye provides an estimate of the total protein mass that is related to the cell number. the cells are fixed in situ by gently aspirating off the culture media and adding 50 μl ice cold 10% Trichloroacetic Acid (TCA) per well and incubate at 4° C. for 30-60 min, The plates are washed with H2O five times and allowed to air dry for 5 min. Addition of 50 μl 0.4% (w/v) SRB solution in 1% (v/v) acetic acid to each well and incubation for 30 min at RT completes the staining reaction. Following staining, plates are washed four times with 1% acetic acid to remove unbound dye and then allowed to air dry for 5 min. The stain is solubilized with 100 μl of 10 mM Tris pH 10.5 per well. Absorbance is read at 570 nm.
(§3) The percentage (%) of relative growth inhibition was calculated by comparing to DMSO treated only cells (100%). GI50's were determined for compounds with cytotoxic activity. The GI50 was calculated using GraphPad PRISM software (GraphPad Software, Inc., San Diego, Calif., USA).
(§4) In Table 1 below, GI50 value ranges for compound examples against breast cancer cell lines (MDA-MB-468), colon cancer cell lines (HCT116) and ovarian cancer cell lines (PA-1) are given.
In Table 2 below, GI50 value ranges for compound examples against breast cancer cell lines (MDA-MB-231), colon cancer cell lines (HCT116) and ovarian cancer cell lines (PA-1) are given.
(§5) In Table 3 below, GI50 value ranges for compound examples against breast cancer cell lines (MDA-MB-468), colon cancer cell lines (HCT116) and ovarian cancer cell lines (OVCAR-3) are given.

[2] = test system: breast cancer cells (MDA-MB-468); experiment: Cancer cell line growth inhibition, Sulforhodamine B assay, MDA-MB-468; format: cell-based; settings: read-out: Cancer Cell Line GI50 Range MDA-MB-468
Procedure: as §1, §2, §3, §4, §5

[3] = test system: ovarian cancer cells (OVCAR-3); experiment: Cancer cell line growth inhibition, Sulforhodamine B assay, OVCAR-3; format: cell-based; settings: read-out: Cancer Cell Line GI50 Range OVCAR-3
Procedure: as §1, §2, §3, §5

[4] = Homo sapiens, HCT-116, HCT116 colon cancer cell line
[5] = Homo sapiens, MDA-MB-468, MDA-MB-468 breast cancer cell line
[6] = Homo sapiens, OVCAR-3, OVCAR-3 ovarian cancer cell line
[7] = MDA-MB-468 breast cancer cell line
[8] = OVCAR-3 ovarian cancer cell line

SMILES | IC50 (human TTK) | GI50 [1, 4] | GI50 [2, 5] | GI50 [3, 6] | GI50 ([1]; HCT116 colon cancer cell line) | GI50 [2, 7] | GI50 [3, 8]
O=C(NC1CC1)c1ccc(-c2cnn3c(NCCN4CCOCC4)cc(Oc4cccc(F)c4)nc23)cc1Cl [Example C34] | < 100 nM | ≤ 100 nM | ≤ 100 nM | ≤ 100 nM |  |  | 
Cc1cc(-c2cnn3c(NC[C@H]4CCOC4)cc(N[C@H]4CCCC[C@H]4O)nc23)ccc1C(=O)NC1CC1 [Example C35, N-cyclopropyl-4-(5-(((1S,2R)-2-hydroxycyclohexyl)amino)-7-((((R)-tetrahydrofuran-3-yl)methyl)amino)pyrazolo[1,5-a]pyrimidin-3-yl)-2-methylbenzamide] | < 100 nM | ≤ 100 nM | ≤ 100 nM | ≤ 100 nM |  |  | 
Cc1cc(-c2cnn3c(NC[C@@H]4CCOC4)cc(N[C@H]4CCCC[C@H]4O)nc23)ccc1C(=O)NC1CC1 [Example C36, N-cyclopropyl-4-(5-(((1S,2R)-2-hydroxycyclohexyl)amino)-7-((((S)-tetrahydrofuran-3-yl)methyl)amino)pyrazolo[1,5-a]pyrimidin-3-yl)-2-methylbenzamide] | < 100 nM | ≤ 100 nM | ≤ 100 nM | ≤ 100 nM |  |  | 
Cc1cc(-c2cnn3c(NC[C@H]4C[C@@](C)(O)C4)cc(NC4CCCC4)nc23)ccc1C(=O)NC1CC1 [Example C44, 4-(5-(cyclopentylamino)-7-((((1s,3s)-3-hydroxy-3-methylcyclobutyl)methyl)amino)pyr-azolo[1,5-a]pyrimidin-3-yl)-N-cyclopropyl-2-methylbenzamide] | < 100 nM | ≤ 100 nM | ≤ 100 nM | ≤ 100 nM |  |  | 
Cc1cc(-c2cnn3c(NCCN4CCC(F)CC4)cc(Oc4cccc(F)c4F)nc23)ccc1C(=O)NC1CC1 [Example C47, N-cyclopropyl-4-(5-(2,3-difluorophenoxy)-7-((2-(4-fluoropiperidin-1-yl)ethyl)amino)pyrazolo[1,5-a]pyrimidin-3-yl)-2-methylbenzamide] | < 100 nM | ≤ 100 nM | ≤ 100 nM | ≤ 100 nM |  |  | 
Cc1cc(-c2cnn3c(NCc4cccnc4)cc(NC4CCOCC4)nc23)ccc1C(=O)NC1CC1 [Example C49] | < 100 nM | 100 to 500 nM | 100 to 500 nM | 100 to 500 nM |  |  | 
Cc1cc(-c2cnn3c(NCCN4CCOCC4)cc(Oc4cccnc4)nc23)ccc1C(=O)NC1CC1 [Example C51] | < 100 nM | 100 to 500 nM | 100 to 500 nM | 100 to 500 nM |  |  | 
Cc1cc(-c2cnn3c(NCc4cccnc4)cc(OC4CCOCC4)nc23)ccc1C(=O)NC1CC1 [Example C52] | < 100 nM | 100 to 500 nM | 100 to 500 nM | > 500 nM |  |  | 
Cc1cc(-c2cnn3c(NCc4ccncc4)cc(NC4CCOCC4)nc23)ccc1C(=O)NC1CC1 [Example C54] | < 100 nM |  |  |  | 100 to 500 nM | 100 to 500 nM | 100 to 500 nM
Cc1cc(-c2cnn3c(NCC4CCOCC4)cc(Oc4cncc(F)c4)nc23)ccc1C(=O)NC1CC1 [Example C56] | < 100 nM | ≤ 100 nM | ≤ 100 nM | ≤ 100 nM |  |  | 
Cc1cc(-c2cnn3c(NCC4CCOCC4)cc(NCC4CCOCC4)nc23)ccc1C(=O)NC1CC1 [Example C57] | < 100 nM | 100 to 500 nM | 100 to 500 nM | 100 to 500 nM |  |  | 
Cc1cc(-c2cnn3c(NCC4CCOCC4)cc(N(C)C4CCCC4)nc23)ccc1C(=O)NC1CC1 [Example C58] | < 100 nM | ≤ 100 nM | 100 to 500 nM | 100 to 500 nM |  |  | 
Cc1cc(-c2cnn3c(NCC4CCOCC4)cc(Nc4cccnc4)nc23)ccc1C(=O)NC1CC1 [Example C59] | < 100 nM | 100 to 500 nM | 100 to 500 nM | 100 to 500 nM |  |  | 
Cc1cc(-c2cnn3c(NCCCn4ccnc4)cc(Oc4ccccc4)nc23)ccc1C(=O)NC1CC1 [Example C61] | < 100 nM | ≤ 100 nM | ≤ 100 nM | ≤ 100 nM |  |  | 
Cc1cc(-c2cnn3c(NC[C@H]4CCCO4)cc(NC4CCCC4)nc23)ccc1C(=O)NC1CC1 [Example C62] | < 100 nM | 100 to 500 nM | 100 to 500 nM | 100 to 500 nM |  |  | 
Cc1cc(-c2cnn3c(NCC4CCOCC4)cc(N4C5CCC4CC(O)C5)nc23)ccc1C(=O)NC1CC1 (stereo not drawn) [Example C66] | < 100 nM | 100 to 500 nM | 100 to 500 nM | 100 to 500 nM |  |  | 
Cc1cc(-c2cnn3c(NCC4CCOCC4)cc(NCC4COC4)nc23)ccc1C(=O)NC1CC1 [Example C71] | < 100 nM | 100 to 500 nM | 100 to 500 nM | > 500 nM |  |  | 
Cc1cc(-c2cnn3c(NC[C@H]4CCCO4)cc(NC4CCCC4)nc23)ccc1C(=O)NC1CC1 [Example C72] | < 100 nM |  |  |  | ≤ 100 nM | ≤ 100 nM | 100 to 500 nM
Cc1cc(-c2cnn3c(NCC4CCOCC4)cc(NCc4cccnc4)nc23)ccc1C(=O)NC1CC1 [Example C74] | < 100 nM | 100 to 500 nM | 100 to 500 nM | > 500 nM |  |  | 
Cc1cc(-c2cnn3c(NCCN4CCOCC4)cc(NC4CCCC4)nc23)ccc1C(=O)NC1CC1 [Example C77] | < 100 nM | 100 to 500 nM | 100 to 500 nM | 100 to 500 nM |  |  | 
Cc1cc(-c2cnn3c(NCC4CCOCC4)cc(N[C@H](CO)C(C)(C)C)nc23)ccc1C(=O)NC1CC1 [Example C78] | < 100 nM | 100 to 500 nM | 100 to 500 nM | 100 to 500 nM |  |  | 
Cc1cc(-c2cnn3c(NCC4CCOCC4)cc(N[C@H]4COCC[C@@H]4O)nc23)ccc1C(=O)NC1CC1 [Example C79] | < 100 nM | > 500 nM | > 500 nM | > 500 nM |  |  | 
Cc1cc(-c2cnn3c(NCC4CCOCC4)cc(N[C@@H]4CCCOC4)nc23)ccc1C(=O)NC1CC1 [Example C82] | < 100 nM | 100 to 500 nM | 100 to 500 nM | 100 to 500 nM |  |  | 
Cc1cc(-c2cnn3c(NCC4CCOCC4)cc(N[C@H]4CCCOC4)nc23)ccc1C(=O)NC1CC1 [Example C83] | < 100 nM | ≤ 100 nM | 100 to 500 nM | 100 to 500 nM |  |  | 
